Laboratory results reported in ChEMBL document CHEMBL1143089, “Structure-based design and subsequent optimization of 2-tolyl-(1,2,3-triazol-1-yl-4-carboxamide) inhibitors of p38 MAP kinase” (Bioorg Med Chem Lett, 2008).
Values after ≈ are worked out from the molar mass of the structure shown. Each block holds one compound with its values, some of them ahead of it. Active and inactive are the calls of the source. No cut-off for these calls is given here.

Assays:
THP-1 = assay: Inhibition of LPS-stimulated TNFalpha production in human THP1 cells; format: functional, cell-based
Blood = assay: Inhibition of LPS-stimulated TNFalpha production in human whole blood; format: functional, tissue-based
[1] = Binding affinity to mitogen-activated protein kinase p38 by thermal denaturation assay
[2] = Solubility at pH 7.4; format: physicochemical; details: buffer
Homo sapiens = organism: Homo sapiens; assay: Protein binding in human plasma; details: read-out: PPB (converted)
[3] = Apparent permeability across human Caco-2 cells; format: ADME, cell-based
[4] = Inhibition of JNK2a
[5] = biological target: Fibroblast growth factor receptor 3 (Homo sapiens) (UniProt P22607); assay: Activity at FGFR3 at 10 uM
[6] = Activity at PKA at 3 uM
[7] = biological target: Vascular endothelial growth factor receptor 1 (Homo sapiens) (UniProt P17948); assay: Activity at VEGFR1 at 10 uM
[8] = biological target: Glycogen synthase kinase-3 beta (Homo sapiens) (UniProt P49841); assay: Activity at GSK3-beta at 3 uM
[9] = biological target: 3-phosphoinositide-dependent protein kinase 1 (Homo sapiens) (UniProt O15530); assay: Activity at PDK1 at 3 uM
[10] = biological target: Ribosomal protein S6 kinase alpha-1 (Homo sapiens) (UniProt Q15418); assay: Activity at MAPKAP-K1a at 3 uM
[11] = biological target: Dual specificity tyrosine-phosphorylation-regulated kinase 1A (Homo sapiens) (UniProt Q13627); assay: Activity at DYRK1A at 3 uM
[12] = biological target: Tyrosine-protein kinase BTK (Homo sapiens) (UniProt Q06187); assay: Activity at Btk at 10 uM
[13] = biological target: MAP kinase-activated protein kinase 2 (Homo sapiens) (UniProt P49137); assay: Activity at MAPKAP-K2 at 3 uM
[14] = biological target: Serine/threonine-protein kinase Chk1 (Homo sapiens) (UniProt O14757); assay: Activity at CHK1 at 3 uM
[15] = biological target: Cyclin-dependent kinase 2/cyclin A (Homo sapiens) (UniProt P24941+P20248+P78396); assay: Activity at CDK2/cyclin A at 3 uM; format: protein-complex assay
[16] = biological target: Casein kinase I isoform alpha (Homo sapiens) (UniProt P48729); assay: Activity at CK1 at 3 uM
[17] = biological target: Tyrosine-protein kinase Lyn (Homo sapiens) (UniProt P07948); assay: Activity at Lyn at 10 uM
[18] = biological target: Tyrosine-protein kinase JAK3 (Homo sapiens) (UniProt P52333); assay: Activity at JAK3 at 10 uM
[19] = biological target: Insulin receptor (Homo sapiens) (UniProt P06213); assay: Activity at IR at 10 uM
[20] = biological target: Tyrosine-protein kinase TXK (Homo sapiens) (UniProt P42681); assay: Activity at TXK at 10 uM
[21] = Activity at MKK1 at 3 uM
[22] = biological target: Ribosomal protein S6 kinase beta-1 (Homo sapiens) (UniProt P23443); assay: Activity at S6K1 at 3 uM
[23] = biological target: Ephrin type-A receptor 2 (Homo sapiens) (UniProt P29317); assay: Activity at Eck at 10 uM
[24] = biological target: Casein kinase II subunit alpha (Homo sapiens) (UniProt P68400); assay: Activity at CK2 at 3 uM
[25] = biological target: Rho-associated protein kinase 2 (Homo sapiens) (UniProt O75116); assay: Activity at ROCK2 at 3 uM
[26] = biological target: Mitogen-activated protein kinase 1 (Homo sapiens) (UniProt P28482); assay: Activity at ERK2 at 3 uM
[27] = biological target: Insulin-like growth factor 1 receptor (Homo sapiens) (UniProt P08069); assay: Activity at IGF1R at 10 uM
[28] = biological target: Mitogen-activated protein kinase 8 (Homo sapiens) (UniProt P45983); assay: Activity at JNK1 at 3 uM
[29] = biological target: Epidermal growth factor receptor (Homo sapiens) (UniProt P00533); assay: Activity at EGFR at 10 uM
[30] = biological target: Serine/threonine-protein kinase Sgk1 (Homo sapiens) (UniProt O00141); assay: Activity at SGK at 3 uM
[31] = biological target: MAP kinase-activated protein kinase 5 (Homo sapiens) (UniProt Q8IW41); assay: Activity at PRAK at 3 uM
[32] = biological target: Mitogen-activated protein kinase 13 (Homo sapiens) (UniProt O15264); assay: Activity at MAPK p38delta at 3 uM
[33] = Activity at AMPK at 3 uM
[34] = biological target: Serine/threonine-protein kinase Nek6 (Homo sapiens) (UniProt Q9HC98); assay: Activity at NEK6 at 3 uM
[35] = biological target: Ribosomal protein S6 kinase alpha-5 (Homo sapiens) (UniProt O75582); assay: Activity at MSK1 at 3 uM
[36] = biological target: Hepatocyte growth factor receptor (Homo sapiens) (UniProt P08581); assay: Activity at HGFR at 10 uM
[37] = biological target: Protein kinase C alpha type (Homo sapiens) (UniProt P17252); assay: Activity at PKCalpha at 3 uM
[38] = biological target: Tyrosine-protein kinase SYK (Homo sapiens) (UniProt P43405); assay: Activity at Syk at 10 uM
[39] = biological target: Ephrin type-A receptor 3 (Homo sapiens) (UniProt P29320); assay: Activity at Hek at 10 uM; details: HEK293
[40] = Activity at PP2A at 3 uM
[41] = Activity at PKBdeltaPH at 3 uM
[42] = biological target: Mitogen-activated protein kinase 14 (Homo sapiens) (UniProt Q16539); assay: Activity at MAPK p38-alpha at 3 uM
[43] = biological target: Tyrosine-protein kinase ITK/TSK (Homo sapiens) (UniProt Q08881); assay: Activity at Itk at 10 uM
[44] = Binding affinity to mitogen-activated protein kinase p38

Insulin receptor (Homo sapiens), sequence (P06213 28-758 limits assumed): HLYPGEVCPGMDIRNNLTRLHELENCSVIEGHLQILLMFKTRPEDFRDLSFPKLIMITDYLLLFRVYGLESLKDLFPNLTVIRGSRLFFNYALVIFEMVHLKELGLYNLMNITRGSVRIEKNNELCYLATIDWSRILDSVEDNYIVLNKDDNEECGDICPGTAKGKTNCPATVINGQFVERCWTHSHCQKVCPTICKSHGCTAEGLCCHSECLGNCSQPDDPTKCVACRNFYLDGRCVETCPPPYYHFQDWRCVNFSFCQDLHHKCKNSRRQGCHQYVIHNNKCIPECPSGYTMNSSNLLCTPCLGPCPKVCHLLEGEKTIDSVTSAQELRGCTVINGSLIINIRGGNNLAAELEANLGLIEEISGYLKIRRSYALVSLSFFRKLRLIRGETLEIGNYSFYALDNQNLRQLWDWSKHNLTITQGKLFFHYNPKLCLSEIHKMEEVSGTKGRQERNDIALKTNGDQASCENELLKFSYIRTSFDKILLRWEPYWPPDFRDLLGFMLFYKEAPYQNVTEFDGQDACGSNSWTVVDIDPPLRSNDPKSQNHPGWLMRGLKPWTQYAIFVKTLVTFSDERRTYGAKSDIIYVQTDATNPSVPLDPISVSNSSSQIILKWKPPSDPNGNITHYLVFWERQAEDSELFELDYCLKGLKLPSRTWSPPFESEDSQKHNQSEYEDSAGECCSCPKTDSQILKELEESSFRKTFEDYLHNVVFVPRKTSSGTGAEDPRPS
Insulin receptor (Homo sapiens), sequence (P06213 763-1382 limits assumed): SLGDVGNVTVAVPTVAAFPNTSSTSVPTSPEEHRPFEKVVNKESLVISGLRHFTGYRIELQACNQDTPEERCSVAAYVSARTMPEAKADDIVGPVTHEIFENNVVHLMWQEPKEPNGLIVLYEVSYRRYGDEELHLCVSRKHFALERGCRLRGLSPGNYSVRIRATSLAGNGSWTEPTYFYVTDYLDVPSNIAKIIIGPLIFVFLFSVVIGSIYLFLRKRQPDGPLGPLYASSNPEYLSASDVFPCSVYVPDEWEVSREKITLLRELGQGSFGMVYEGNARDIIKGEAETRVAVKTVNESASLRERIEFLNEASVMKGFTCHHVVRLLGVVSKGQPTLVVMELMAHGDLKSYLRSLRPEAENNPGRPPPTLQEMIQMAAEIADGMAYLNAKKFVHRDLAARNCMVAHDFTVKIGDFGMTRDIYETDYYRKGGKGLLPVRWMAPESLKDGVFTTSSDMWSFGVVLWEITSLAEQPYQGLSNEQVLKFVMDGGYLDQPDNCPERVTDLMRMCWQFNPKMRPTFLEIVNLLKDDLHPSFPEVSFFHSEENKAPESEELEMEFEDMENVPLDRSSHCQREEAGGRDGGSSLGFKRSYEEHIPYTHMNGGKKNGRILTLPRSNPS
MAP kinase-activated protein kinase 5 (Homo sapiens), sequence (Q8IW41 whole entry): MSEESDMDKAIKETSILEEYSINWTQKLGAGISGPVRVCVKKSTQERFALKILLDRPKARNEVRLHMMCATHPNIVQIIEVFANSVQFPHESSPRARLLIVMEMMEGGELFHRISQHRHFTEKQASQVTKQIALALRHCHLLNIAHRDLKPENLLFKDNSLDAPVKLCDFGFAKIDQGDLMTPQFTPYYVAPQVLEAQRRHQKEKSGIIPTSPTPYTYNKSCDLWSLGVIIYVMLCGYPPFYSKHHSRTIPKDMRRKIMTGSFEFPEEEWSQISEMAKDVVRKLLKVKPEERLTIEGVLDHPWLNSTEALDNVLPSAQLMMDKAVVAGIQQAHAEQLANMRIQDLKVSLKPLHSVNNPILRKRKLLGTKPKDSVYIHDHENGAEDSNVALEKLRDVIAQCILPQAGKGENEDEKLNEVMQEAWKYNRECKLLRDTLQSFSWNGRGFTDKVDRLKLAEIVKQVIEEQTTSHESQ
Rho-associated protein kinase 2 (Homo sapiens), sequence (O75116 whole entry, looked up): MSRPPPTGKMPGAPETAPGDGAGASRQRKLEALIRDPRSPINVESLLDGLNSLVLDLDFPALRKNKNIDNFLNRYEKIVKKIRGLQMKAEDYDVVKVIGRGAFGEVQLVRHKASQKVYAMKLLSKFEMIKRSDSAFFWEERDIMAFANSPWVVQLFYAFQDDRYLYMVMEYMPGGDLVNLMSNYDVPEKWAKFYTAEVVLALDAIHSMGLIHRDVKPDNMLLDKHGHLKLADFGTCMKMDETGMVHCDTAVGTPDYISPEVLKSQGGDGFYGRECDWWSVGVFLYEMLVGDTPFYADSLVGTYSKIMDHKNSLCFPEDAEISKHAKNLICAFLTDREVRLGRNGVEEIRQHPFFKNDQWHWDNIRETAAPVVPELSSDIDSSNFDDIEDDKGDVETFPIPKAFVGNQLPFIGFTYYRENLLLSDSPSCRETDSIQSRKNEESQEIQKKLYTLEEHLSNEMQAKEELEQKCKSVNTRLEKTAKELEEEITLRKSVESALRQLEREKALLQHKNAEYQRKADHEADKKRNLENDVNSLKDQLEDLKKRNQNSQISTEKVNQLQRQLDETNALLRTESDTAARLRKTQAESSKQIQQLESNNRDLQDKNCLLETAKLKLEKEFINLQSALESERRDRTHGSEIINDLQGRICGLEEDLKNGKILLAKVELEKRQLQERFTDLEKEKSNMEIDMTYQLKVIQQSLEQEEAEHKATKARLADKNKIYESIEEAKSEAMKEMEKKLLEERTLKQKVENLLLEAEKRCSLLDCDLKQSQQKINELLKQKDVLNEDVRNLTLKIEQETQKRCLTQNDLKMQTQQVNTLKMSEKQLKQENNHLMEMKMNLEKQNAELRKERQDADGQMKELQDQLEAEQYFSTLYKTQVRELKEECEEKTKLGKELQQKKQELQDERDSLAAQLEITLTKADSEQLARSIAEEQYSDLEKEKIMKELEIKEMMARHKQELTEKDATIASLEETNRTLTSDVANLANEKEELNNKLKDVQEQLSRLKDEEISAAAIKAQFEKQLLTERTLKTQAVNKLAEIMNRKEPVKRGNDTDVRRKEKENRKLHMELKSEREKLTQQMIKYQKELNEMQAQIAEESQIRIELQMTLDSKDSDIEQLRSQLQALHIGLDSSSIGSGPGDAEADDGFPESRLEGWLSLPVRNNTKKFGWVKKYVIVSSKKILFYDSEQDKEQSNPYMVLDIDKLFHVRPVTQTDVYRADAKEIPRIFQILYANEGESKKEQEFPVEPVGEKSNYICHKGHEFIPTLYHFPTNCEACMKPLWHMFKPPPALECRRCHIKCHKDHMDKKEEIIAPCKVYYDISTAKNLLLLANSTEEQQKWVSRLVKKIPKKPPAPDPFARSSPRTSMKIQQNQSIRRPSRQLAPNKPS
Ribosomal protein S6 kinase alpha-1 (Homo sapiens), sequence (Q15418 whole entry): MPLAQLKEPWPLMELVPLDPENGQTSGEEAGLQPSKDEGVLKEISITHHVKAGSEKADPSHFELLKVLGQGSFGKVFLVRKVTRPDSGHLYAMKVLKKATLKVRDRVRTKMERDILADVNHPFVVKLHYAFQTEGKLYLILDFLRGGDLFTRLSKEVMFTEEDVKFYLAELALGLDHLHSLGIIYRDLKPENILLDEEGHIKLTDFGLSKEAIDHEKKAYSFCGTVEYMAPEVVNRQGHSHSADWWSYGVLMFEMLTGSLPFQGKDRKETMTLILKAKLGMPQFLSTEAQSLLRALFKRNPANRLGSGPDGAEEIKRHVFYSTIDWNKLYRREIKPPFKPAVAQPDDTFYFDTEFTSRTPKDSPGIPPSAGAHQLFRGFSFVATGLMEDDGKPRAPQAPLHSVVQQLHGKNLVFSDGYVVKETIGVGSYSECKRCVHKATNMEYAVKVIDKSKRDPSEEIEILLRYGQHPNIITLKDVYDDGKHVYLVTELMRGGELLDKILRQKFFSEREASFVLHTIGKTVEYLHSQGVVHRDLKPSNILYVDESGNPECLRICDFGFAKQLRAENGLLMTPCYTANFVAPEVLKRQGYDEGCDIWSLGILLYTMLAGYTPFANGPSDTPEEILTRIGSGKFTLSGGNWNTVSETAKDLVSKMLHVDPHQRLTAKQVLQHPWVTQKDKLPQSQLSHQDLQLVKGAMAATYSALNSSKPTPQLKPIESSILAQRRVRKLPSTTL
Ephrin type-A receptor 3 (Homo sapiens), sequence (P29320 whole entry): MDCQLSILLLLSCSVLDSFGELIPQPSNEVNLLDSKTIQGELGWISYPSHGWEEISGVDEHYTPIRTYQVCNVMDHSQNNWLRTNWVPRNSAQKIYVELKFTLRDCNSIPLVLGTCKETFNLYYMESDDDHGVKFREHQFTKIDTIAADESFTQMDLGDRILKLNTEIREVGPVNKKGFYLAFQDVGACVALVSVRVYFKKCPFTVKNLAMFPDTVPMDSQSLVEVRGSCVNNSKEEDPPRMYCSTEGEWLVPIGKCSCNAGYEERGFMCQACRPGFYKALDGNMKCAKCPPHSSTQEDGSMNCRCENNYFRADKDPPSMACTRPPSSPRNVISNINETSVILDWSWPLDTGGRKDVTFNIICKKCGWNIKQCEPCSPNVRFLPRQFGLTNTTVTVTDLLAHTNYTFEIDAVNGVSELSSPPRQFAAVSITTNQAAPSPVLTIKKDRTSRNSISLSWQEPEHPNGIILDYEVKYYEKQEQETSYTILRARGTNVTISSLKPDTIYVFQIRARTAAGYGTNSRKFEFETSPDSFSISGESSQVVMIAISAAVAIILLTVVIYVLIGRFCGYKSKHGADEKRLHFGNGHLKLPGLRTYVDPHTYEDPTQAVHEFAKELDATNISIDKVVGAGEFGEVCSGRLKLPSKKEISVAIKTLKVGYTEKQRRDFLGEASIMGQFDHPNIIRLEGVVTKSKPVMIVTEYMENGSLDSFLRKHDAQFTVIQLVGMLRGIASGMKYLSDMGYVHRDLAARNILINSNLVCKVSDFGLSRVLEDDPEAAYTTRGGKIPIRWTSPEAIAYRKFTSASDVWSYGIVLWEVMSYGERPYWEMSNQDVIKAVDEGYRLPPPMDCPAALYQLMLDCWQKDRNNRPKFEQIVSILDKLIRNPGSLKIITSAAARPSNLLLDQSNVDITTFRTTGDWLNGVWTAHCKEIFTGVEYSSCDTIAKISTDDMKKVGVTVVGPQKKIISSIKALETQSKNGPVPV

SMILES: COc1c(NC(=O)c2ccc(C)c(N3C=C(C(=O)NCC(C)(C)N(C)C)NN3)c2)cc(C(C)(C)C)cc1NS(C)(=O)=O
- IC50 (THP-1): 0.14 µM
- IC50 (Blood): 0.79 µM
- Tm [1]: 56.1 °C

SMILES: COc1c(NC(=O)c2ccc(C)c(N3C=C(C(=O)NCc4ccccc4)NN3)c2)cc(C(C)(C)C)cc1NS(C)(=O)=O
- IC50 (THP-1): 0.04 µM
- IC50 (Blood): 0.93 µM
- Tm [1]: 59.7 °C

SMILES: COc1c(NC(=O)c2ccc(C)c(N3C=C(C(=O)N(C)Cc4ccccc4)NN3)c2)cc(C(C)(C)C)cc1NS(C)(=O)=O
- IC50 (THP-1): 0.029 µM
- IC50 (Blood): > 15 µM
- Tm [1]: 57.8 °C

SMILES: COc1c(NC(=O)c2ccc(C)c(N3C=C(C(=O)NCC4CCCCC4)NN3)c2)cc(C(C)(C)C)cc1NS(C)(=O)=O
- IC50 (THP-1): 0.014 µM
- IC50 (Blood): 0.26 µM
- Tm [1]: 56.2 °C

SMILES: COc1c(NC(=O)c2ccc(C)c(N3C=C(C(=O)NC4CC4)NN3)c2)cc(C(C)(C)C)cc1NS(C)(=O)=O
- IC50 (THP-1): 0.11 µM
- IC50 (Blood): 2.8 µM
- Tm [1]: 56.6 °C

SMILES: COc1c(NC(=O)c2ccc(C)c(N3C=C(C(=O)N[C@H](C)c4ccccc4)NN3)c2)cc(C(C)(C)C)cc1NS(C)(=O)=O
- IC50 (THP-1): 0.013 µM
- IC50 (Blood): 0.47 µM
- Tm [1]: 64.6 °C

SMILES: COc1c(NC(=O)c2ccc(C)c(N3C=C(C(=O)N[C@H](CN(C)C)c4ccccc4)NN3)c2)cc(C(C)(C)C)cc1NS(C)(=O)=O
- IC50 (THP-1): 0.035 µM
- IC50 (Blood): 0.5 µM
- Tm [1]: 65.1 °C

SMILES: Cc1ccc(-n2nc(C(C)(C)C)cc2NC(=O)Nc2ccc(OCCN3CCOCC3)c3ccccc23)cc1 [DORAMAPIMOD]
- IC50 [4]: 0.006 µM
- Papp [3]: 10 ×10⁻⁶ cm/s
- solubility [2]: 1 µg/mL (≈ 1.9 µM)
- Tm [1]: 63.5 °C

SMILES: COc1c(NC(=O)c2ccc(C)c(N3C=C(C(=O)NC(C)(C)C)NN3)c2)cc(C(C)(C)C)cc1NS(C)(=O)=O
- IC50 (THP-1): 0.084 µM
- IC50 (Blood): > 15 µM
- Tm [1]: 56.8 °C

SMILES: COc1c(NC(=O)c2ccc(C)c(N3C=C(C(=O)NCC4CCN(C)CC4)NN3)c2)cc(C(C)(C)C)cc1NS(C)(=O)=O
- IC50 (THP-1): 0.2 µM
- IC50 (Blood): 4.5 µM
- Tm [1]: 57.5 °C

SMILES: COc1c(NC(=O)c2ccc(C)c(N3C=C(C(=O)NCc4ccncc4)NN3)c2)cc(C(C)(C)C)cc1NS(C)(=O)=O
- IC50 (THP-1): 0.074 µM
- IC50 (Blood): 0.72 µM
- Tm [1]: 58.8 °C

SMILES: COc1c(NC(=O)c2ccc(C)c(N3C=C(C(=O)N[C@@H](C)C4CCCCC4)NN3)c2)cc(C(C)(C)C)cc1NS(C)(=O)=O
- IC50 (THP-1): 0.066 µM
- IC50 (Blood): 5.6 µM
- Tm [1]: 56.9 °C

SMILES: COc1c(NC(=O)c2ccc(C)c(N3C=C(C(=O)NCC(C)(C)CN(C)C)NN3)c2)cc(C(C)(C)C)cc1NS(C)(=O)=O
- Activity [5]: inactive
- Activity [6]: inactive
- Activity [7]: inactive
- Activity [8]: inactive
- Activity [9]: inactive
- IC50 [4]: 1.1 µM
- Activity [10]: inactive
- Activity [11]: inactive
- Activity [12]: inactive
- Activity [13]: inactive
- Activity [14]: inactive
- Activity [15]: inactive
- IC50 (THP-1): 0.022 µM
- Activity [16]: inactive
- Activity [17]: inactive
- Activity [18]: inactive
- Activity [19]: inactive
- Activity [20]: inactive
- Activity [21]: inactive
- Activity [22]: inactive
- Activity [23]: inactive
- Activity [24]: inactive
- Activity [25]: inactive
- Activity [26]: inactive
- Activity [27]: inactive
- Activity [28]: inactive
- Activity [29]: inactive
- Activity [30]: inactive
- Papp [3]: 13 ×10⁻⁶ cm/s
- solubility [2]: 13.9 µg/mL (≈ 22.6 µM)
- Activity [31]: inactive
- Activity [32]: inactive
- Activity [33]: inactive
- Activity [34]: inactive
- Activity [35]: inactive
- Activity [36]: inactive
- Activity [37]: inactive
- Activity [38]: inactive
- Activity [39]: inactive
- Activity [40]: inactive
- IC50 (Blood): 0.083 µM
- Tm [1]: 57.3 °C
- Activity [41]: inactive
- fraction unbound (Homo sapiens): 0.34
- Activity [42]: inactive
- Activity [43]: inactive

SMILES: COc1c(NC(=O)c2ccc(C)c(N3C=C(C(=O)NCc4cccnc4)NN3)c2)cc(C(C)(C)C)cc1NS(C)(=O)=O
- IC50 (THP-1): 0.038 µM
- IC50 (Blood): 0.27 µM
- Tm [1]: 57.9 °C

SMILES: COc1c(NC(=O)c2ccc(C)c(N3C=C(C(=O)N[C@@H](C)c4ccccc4)NN3)c2)cc(C(C)(C)C)cc1NS(C)(=O)=O
- IC50 (THP-1): 0.027 µM
- IC50 (Blood): 2.6 µM
- Tm [1]: 60.1 °C

Now from value to compound:

- IC50 (THP-1): 0.11 µM
- IC50 (Blood): 8.4 µM
- Tm [1]: 57.3 °C
SMILES: CNC(=O)C1=CN(c2cc(C(=O)Nc3cc(C(C)(C)C)cc(NS(C)(=O)=O)c3OC)ccc2C)NN1

- IC50 (THP-1): 0.028 µM
- IC50 (Blood): 0.3 µM
- Tm [1]: 57.4 °C
SMILES: COc1c(NC(=O)c2ccc(C)c(N3C=C(C(=O)NCC4CCCN(C)C4)NN3)c2)cc(C(C)(C)C)cc1NS(C)(=O)=O (centres undefined)

- IC50 (THP-1): 0.014 µM
- solubility [2]: 0.1 µg/mL (≈ 0.175 µM)
- IC50 (Blood): 0.26 µM
- Tm [1]: 60.5 °C
- fraction unbound (Homo sapiens): 0.08
SMILES: COc1c(NC(=O)c2ccc(C)c(N3C=C(C(=O)NCC(C)(C)C)NN3)c2)cc(C(C)(C)C)cc1NS(C)(=O)=O

- IC50 (THP-1): 0.018 µM
- Papp [3]: 7.4 ×10⁻⁶ cm/s
- solubility [2]: 2 µg/mL (≈ 3.48 µM)
- IC50 (Blood): 0.21 µM
- Tm [1]: 59.9 °C
- fraction unbound (Homo sapiens): 0.34
SMILES: COc1c(NC(=O)c2ccc(C)c(N3C=C(C(=O)NCC(C)(C)O)NN3)c2)cc(C(C)(C)C)cc1NS(C)(=O)=O

- IC50 (THP-1): 0.016 µM
- IC50 (Blood): 2.8 µM
- Tm [1]: 60.8 °C
SMILES: COc1c(NC(=O)c2ccc(C)c(N3C=C(C(=O)N[C@H](C)C4CCCCC4)NN3)c2)cc(C(C)(C)C)cc1NS(C)(=O)=O

- IC50 (THP-1): 0.014 µM
- IC50 (Blood): 1 µM
- Tm [1]: 61.6 °C
SMILES: COc1c(NC(=O)c2ccc(C)c(N3C=C(C(=O)N[C@H](C)C(C)(C)C)NN3)c2)cc(C(C)(C)C)cc1NS(C)(=O)=O

- IC50 (THP-1): 0.035 µM
- IC50 (Blood): 2.6 µM
- Tm [1]: 60 °C
SMILES: COc1c(NC(=O)c2ccc(C)c(N3C=C(C(=O)N[C@@H](C)C(C)(C)C)NN3)c2)cc(C(C)(C)C)cc1NS(C)(=O)=O

- IC50 (THP-1): > 5 µM
- Kd [44]: 0.008 µM
- IC50 (Blood): 9 µM
- Tm [1]: 56.2 °C
SMILES: CCOC(=O)C1=CN(c2cc(C(=O)Nc3cc(C(C)(C)C)cc(NS(C)(=O)=O)c3OC)ccc2C)NN1
